For one test, the system named is β-D-galactosidase. Description: Detection of β-D-galactosidase on a membrane blot (Example 64). The following applies: nitrocellulose, room temperature, 1 hour plus 30 minutes. The format is biochemical. Here is the method: The reagents used are: 1) Compound 9, 5 mM in ethanol; 2) β-D-galactosidase, 10 mg/mL in 0.05M potassium phosphate, pH 7; 3) Enzyme diluent: 0.01M Tris, 0.01M MgCl2, 0.01M mercaptoethanol, 0.01M NaCl, 1% BSA, pH 7.5; 4) 1% BSA in PBS, pH 7.2; 5) Reaction buffer: 0.3M potassium phosphate, 3 mM MgCl2, pH 7.5; 6) Wash buffer: 20 mM Tris, 137 mM NaCl, 0.5% Tween 20, pH 7.5. A stock solution of β-galactosidase is diluted in enzyme diluent to obtain solutions with the following concentrations: 1 μg/μL, 0.1 μg/μL, 0.01 μg/μL, 1 ng/μL, 0.1 ng/μL and 0 ng/μL. 1 μL of each diluted solution is spotted on a two nitrocellulose membranes (1"×1"), pore size 0.45 μM, and dried immediately by blowing argon on the membranes. One of the membranes is blocked by treatment with 1% BSA in PBS for 20 minutes at room temperature. The following mixture is prepared: 4.95 mL of reaction buffer+[…] of Compound 9 stock solution. 2 mL of this solution is added to each of the blots and incubation is carried out at room temperature for 1 hour. The blots are washed once with 2 mL of wash buffer. 0.5 mL of the mixture described above is once again added to the blots and incubation is carried out at room temperature for 30 minutes. The blots are allowed to dry and an image is obtained by illuminating with reflected UV light at 254 nm. […]

In another test the test system is β-galactosidase. Description: Glycosidase analysis in vitro (Example 60). Type of test: biochemical. The following applies: substrate 333 μM, room temperature, 20 minutes. The protocol: The stock reagents required are: 1) Compound 9 (Example 7) 5 mM in ethanol; 2) Reaction buffer: 0.3M potassium phosphate, 3 mM MgCl2 pH 7.5; 3) β-galactosidase (Boehringer-Mannheim), dissolved at 10 mg/mL in 0.05M potassium phosphate, pH 7; 4) Enzyme diluent: 0.01M Tris HCl, 0.01M MgCl2, 0.01M NaCl, 0.01M β-mercaptoethanol, pH 7.5. 130 μL of the reaction buffer is added to a series of rows and columns in a microplate. To each of the wells with reaction buffer is added 10 μL of the substrate solution. The enzyme stock solution is diluted to 1 mg/mL, 0.1 mg/mL, 10 μg/mL, 1 μg/mL, 0.1 μg/mL and 0 μg/mL. To the wells containing reaction buffer and substrate, 10 μL of each of the different concentration enzyme solutions is added. The wells containing 0 μg/mL enzyme serve as controls. The plate is allowed to incubate at room temperature for 20 minutes. Fluorescence of each well is determined using a 485 nm excitation filter, a 530 nm emission filter and gain setting of 40. Using the above conditions, as little as 6.7 ng/mL enzyme can be detected using the substrate at 333 μM concentration. The fluorescence response is linear until the enzyme concentration reaches ~6.7 μg/mL.

Test [1] concerns NIH-3T3 cells (lacZ negative). The test is described as follows: β-galactosidase activity detection in cells by microscopy, lacZ negative (Example 61). Type of test: cell-based. The following applies: 50 nM, 37° C., 35 minutes. The protocol: (§1) NIH-3T3 cells (lacZ negative) and CRE BAG 2 cells (lacZ positive) are obtained from American Type Culture Collection Co., Rockville, Md. They are grown in a humidified atmosphere of 5% CO2 in D-MEM supplemented with 10% bovine calf serum, 50 μg/mL gentamycin, 300 μg/mL L-glutamine and 10 mM HEPES, pH 7.4. A 50 μM stock solution of Compound 9 is prepared in water: dimethylformamide (DMF) (1:1). NIH-3T3 and CRE BAG 2 cells are trypsinized, washed and suspended in D-MEM containing 10% BCS. 10 μL of the cell suspension is added to 0.989 mL of the same medium. 1 μL of the 50 μM substrate solution is added to the cells to obtain a final concentration of 50 nM. Incubation is carried out at 37° C. for 35 minutes. Cells are centrifuged to form a pellet, supernatant is discarded and cells are resuspended in D-MEM with 10% BCS. Cells are mounted on slides and observed by fluorescence microscopy.

Test [2] deals with CRE BAG 2 cells (lacZ positive). Description: β-galactosidase / lacZ detection in cells by microscopy, lacZ positive (Example 61). Type of test: cell-based. The following applies: 50 nM, 37° C., 35 minutes. Here is the method:
as §1

SMILES strings stand for the structures.

Regarding `O=C1OC2(c3ccc(O[C@@H]4O[C@H](CO)[C@H](O)[C@H](O)[C@H]4O)cc3Oc3cc(O[C@@H]4O[C@H](CO)[C@H](O)[C@H](O)[C@H]4O)ccc32)c2ccc(NC(=O)c3c(F)c(F)c(F)c(F)c3F)cc21` [Compound 9, 5-(pentafluorobenzoylamino)fluorescein di-β-D-galactopyranoside], in the test on β-D-galactosidase, the “amount of enzyme detected” value is ~ 100 ng. In the test on β-galactosidase, the “enzyme concentration up to which fluorescence response is linear” value was ~ 6.7 μg/mL and the “lowest enzyme concentration detected” value worked out at 6.7 ng/mL. In test [1], the “staining of cells, fluorescence microscopy” value is “green fluorescent lysosomes with very little cytoplasmic background”. Moreover, the “staining of cells, fluorescence microscopy” value in test [2] was “green fluorescent lysosomes with well-stained green fluorescent cytoplasm”.

Source of the values: US5773236A, “Assay for glutathiane transferase using polyhaloaryl-substituted reporter molecules” (Molecule Probes, Inc., priority 1997, dated 1998).
